The results in this text go back to patent US20240228537A1, “BLOCK COPOLYPEPTIDES AND USE THEREOF” (National Cheng Kung University, priority 2023, published 2024).

One data set concerns LL2 tumor. In words: Murine syngeneic LL2 lung tumor model. The format is in vivo. The note with it: LL2 tumor-bearing mice.
The nature of data set [1]: Secondary conformation by circular dichroism (BeStSel fit). The note with it: CD, 0.1 mg mL^−1 in DI water, neutral condition. It counts as physicochemical. As for the experimental part:
The BeStSel software (Beta Structure Selection) was used to compute the percentages of peptide chain conformation by fitting the CD spectra.
The MALDI-TOF MS spectrum of the side-chain protected peptide was recorded in the reflection mode of a MALDI-TOF spectrometer (Bruker Autoflex III TOF/TOF). […] For CD measurements, the concentration of peptide samples in DI water was 0.1 mg mL^−1. SAXS patterns of peptide solutions were recorded on a Bruker NanoSTAR U diffractometer with controlled voltage 45 kV and current 650 μA at room temperature under 4×10^−1 torr. The critical aggregation concentration (cac) of peptides was determined by measuring the pyrene emission spectra of various peptide solutions with an integration time of 1.0 sec using a Hitachi FL-4500 fluorescence spectrophotometer.

Data set [2] has as its system H1299 cells. In words: Membrane staining with 1,1′-diethyl-4,4′-carbocyanine iodide. The format is cell-based. The note with it: H1299, 4 μM, 6 h.
The subject of another data set is A549 cells. The data set is described as above. It counts as cell-based. To be noted: A549, 4 μM, 6 h.
Another data set deals with caspase-3, and PARP. The experiment in a line: Immunoblot analysis in H1299 cells. The note with it: H1299, 24 h. The format is cell-based. As to the method: (§1) In the present disclosure, E-cadherin is one of the crucial molecules in cell-cell adhesion, participating in cancer progression.
(§2) The immunoblot analysis was conducted by treating H1299 cells with copolypeptides (4 μM) in the presence or absence of cisplatin (5 μM) for 24 h, followed by extraction using RIPA Lysis and Extraction Buffer (Thermo Fisher Scientific) and then separation by using 8% SDS-PAGE. Upon transferring onto NC membranes (0.22 μm) blocked in 5% fat-free dry milk, the proteins were incubated with primary antibodies against E-cadherin, caspase-3, poly(ADP-ribose) polymerase (PARP), and β-actin, followed by incubation with their appropriate secondary antibodies. An Immobilon Western Chemiluminescent HRP Substrate kit (Merck) was used to form visualized protein bands and the intensities of the protein bands were quantified using the Image J software (Image Processing and Analysis in Java) by normalizing to that of β-actin.

The next data set has as its system E-cadherin. In words: Immunoblot analysis in H1299 cells. The note with it: H1299, 24 h. The format is cell-based. As for the experimental part: as §1, §2
Data set [3] deals with H1299 cells. In words: Cytotoxicity, CCK-8 assay. The format is cell-based. To be noted: H1299, linear copolypeptides, 0 to 100 μM. As to the method:
The cytotoxicity of copolypeptides at various concentrations or in combination with cisplatin (5 μM) was evaluated by incubating with A549, BEAS-2B, and H1299 cells (5×10^3 cells/well) in 96-well plates for 24 h using 10% FBS DMEM as the medium. After adding CCK-8 reagent (Targetmol) dissolved in serum-free medium, the well plates were incubated at 37° C. for 1 h. Upon transferring the medium to fresh 96-well plates, the absorbance of each well was measured at 450 nm using a Microplate Spectrophotometer (BioTek). The percentages of viable cells were calculated by the below equation:
Cell viability (%)=(Absorbancetest cell−Absorbanceblank)/(Absorbancecontrol cell−Absorbanceblank)×100

For data set [4], the system named is H1299 (p53-deficient) cells. In words: Transfection efficiency of copolypeptides/pDNA polyplexes. The format is cell-based. The note with it: H1299, relative to lipofectamine 2000. An excerpt: LysmBnCys5 copolypeptides (m=5, 10, and 15, i.e., SEQ ID NOs: 2, 5, and 3)) efficiently carried p53 gene (pcDNA3 p53 WT plasmid) into H1299 (p53-deficient) cells and enhanced chemotherapeutic treatment. […] Improved transfection efficiency was mainly attributed to optimal polyplex stability, determined by peptide charge density and rigidity. […] Moreover, treatment with both LysmBnCys5/p53 gene vector and cisplatin extended the survival rates of tumor-bearing mice.
FIGS. 22A-22B are results showing the p53 gene transfection efficiencies of various star-shaped copolypeptides to H1299 cells.
5.0 μM copolypeptides or 4.0 μL lipofectamine 2000 (Thermo Fisher Scientific) were mixed with 4.0 μg of plasmid DNA (pEGFP-C, Clontech) in 1 mL serum-free DMEM and left standing for 20 min. After cell concentration reached 2×10^5 cells/well in 6-well plates, the culture medium was replaced with 1 mL copolypeptides/DNA complexes (polyplexes) and incubated for 6 h. […] Green fluorescent protein (GFP) expression of transfected cells was examined under an inverted fluorescence microscope (IX71, Olympus). Quantitative evaluation of the transfection efficiency was also conducted using a flow cytometer (BD Biosciences). […] Transfection efficiency was then calculated as the percentage of cells expressing GFP, with the fluorescence of 2×10^4 cells evaluated by flow cytometry.

Protocol for LL2 tumor: Briefly, LL2 cells that had been transfected with the luciferase reporter gene were inoculated subcutaneously into C57BL/6 mice.
LL2 cells (5×10^5) expressing a luciferase reporter were inoculated subcutaneously into the backs of C57BL/6 mice, as a lung cancer animal model. After 7 days, saline control or copolypeptides were injected intratumorally to start the beginning of the timeline (day zero). […] Tumor growth, body weight, and survival were closely monitored. Tumor volume was calculated using the following equation: (length of tumor)×(width of tumor)^2×0.45 by measuring the tumors in two perpendicular axes with a tissue caliper. Once the tumor volume reached 2,000 mm^3, the mice were sacrificed and subsequently recorded as dead. […] On day 12, mice were intraperitoneally injected with D-luciferin potassium salt (200 μL, 10 mg/mL, Thermo Fisher Scientific), followed by anesthesia with 2% isoflurane in order to perform in vivo bioluminescence imaging. An IVIS-200 Perkin Elmer system with its integrated acquisition and analysis software (Living Image V. 2.50) was performed to quantify the said signals. On day 32, an optical microscope was used to examine the number of pulmonary metastatic nodules.

With `N.N.[Cl][Pt][Cl]` [cisplatin], the body weight loss result in the data set on LL2 tumor is on record as “weight loss”.

On to LLLLLCCCCC [Lys5Cys5], for which, in data set [1], the “Random coil (%)” value stood at 32.0% and the “ß-sheet/turn (%)” value stood at 68.0%. Also, the “membrane staining with 1,1′-diethyl-4,4′-carbocyanine iodide” value with H1299 cells [2] is recorded as “not”. Further, the “membrane staining with 1,1′-diethyl-4,4′-carbocyanine iodide” value in the data set with A549 cells was “not”. Besides, in the data set with caspase-3, and PARP, the “caspase-3 and PARP expression” value is “triggered caspase-3, and PARP expression significantly”. Besides, the E-cadherin expression result in the data set on E-cadherin is “reduced E-cadherin expression”.

“Lys10BnCys5: poly-L-lysine-block-poly-S-benzyl-L-cysteine, 10 and 5 residues”: the cell viability result in the data set with H1299 cells [3] is listed as “cell viability decreased with increasing concentration”.

Take “Lys15BnCys5: poly-L-lysine-block-poly-S-benzyl-L-cysteine, 15 and 5 residues”: the cell viability result with H1299 cells [3] is on record as “cell viability decreased with increasing concentration”. In addition, the transfection efficiency entry in data set [4] is “almost equivalent to that using lipofectamine 2000”.

For poly-L-guanidinylated lysine [PLGL15], the cell viability result with H1299 cells [3] was “cell viability decreased with increasing concentration”.

In the case of “poly-L-lysine (LLLLLLLLLLLLLLL) [PLL15, poly-L-lysine, 15 residues]”, the cell viability result in the data set with H1299 cells [3] was “cell viability decreased with increasing concentration”.
